The source of these data is patent US8846948B2, “Compounds” (Boehringer Ingelheim International GmbH, priority 2011, dated 2014).

The assay concerns the target T1, human recombinant mGluR5 (Homo sapiens, UniProt P41594).
T1 construct: expressed in transfected cells; host or cells: HEK 293 cell line, cultured with tetracycline, hygromycin and geneticin
Briefly: Positive modulation of mGluR5, calcium based FLIPR assay. The note with it: EC50 of the modulation; HEK 293 cell line expressing human recombinant mGluR5; peak height of Ca release fluorescence signal after glutamate at approximately 5% basal stimulation. The protocol:
The positive modulation of mGluR5 is measured in a HEK 293 cell line expressing human recombinant mGluR5 and is detected with calcium based FLIPR assay. The cells are cultured with DMEM supplemented with 10% FCS, 2 μg/mL tetracycline, 100 μg/mL hygromycin and 500 μg/mL gneticin. The cell culture media is exchanged for tetracycline-free cell culture media 3-7 days before the assay. One day before the assay the cell culture medium is exchanged to DMEM without glutamine and phenol red and supplemented with 10% FCS, 100 μg/mL hygromycin and 500 μg/mL geneticin. On the assay day, the medium of the subconfluent cultures is removed and the cells are detached by addition of 2.5 ml EDTA (0.02%) per 175 cm2 culture flask for 1 minute. The cells are resuspend in Ringer solution (140 mM NaCl, 5 mM KCl, 2.5 mM CaCl2, 1.5 mM MgCl2, 5 mM Glucose, 10 mM Hepes; adjusted to pH 7.4 with NaOH), pooled and Ringer solution added to adjust the volume to 50 mL. The cell suspension is centrifuged for […] at 1500 U/min (425 g). The supernatant is removed and the cells washed a second time with 50 ml fresh Ringer solution and centrifuged again as before. The supernatant is again removed and the pellet resuspended in Ringer solution to 1,000,000 cells/ml (1×10^6 cells/mL). The cells are plated onto BD BioCoat Poly-D-Lysine 384 well plates (20.000 cells/well; 20 μl/well). The lid covered plates are then incubated until use at 37° C./10% CO2. For dye loading, 20 μl of Calcium-4 assay kit solution (prepared according to the manufacturer's description in Ringer solution) are added to the cells and the plates are incubated for […] 37° C. and then […] at room temperature.
Controls, Compound dilution and assay execution:
Each assay plate contained wells with “high” and “low” controls:
Low controls 1% DMSO/ringer solution+basal glutamate activation (defined as 100% CTL).
High controls 10 μM CDPPB+basal glutamate activation (defined as 200% CTL).
Test compounds are dissolved and diluted in DMSO to 100-fold the desired concentrations. In a second step, the compounds are diluted in Ringer solution such that the compounds are 4-fold more concentrated than the desired final assay concentration. The final DMSO concentration was 1%.
20 μl of each compound solution are then transferred to the assay plate and the Ca2+ kinetic is measured to determine any intrinsic compound activity. After 5 mM incubation in the FLIPR device, the second stimulation with 20 μl of glutamate in Ringer solution (glutamate concentration adjusted to approximately 5% basal stimulation of the maximal possible glutamate effect) is added and the kinetic Ca2+ response of the wells was measured for the modulation effect.
The peak height of the Ca release related fluorescence signal (9-66) is used for the EC50. The EC50 of the modulation is calculated over a nonlinear regression with GraphPad Prism (Table 1).

Molecules are shown by their SMILES.

T1 sequence (P41594 21-1212): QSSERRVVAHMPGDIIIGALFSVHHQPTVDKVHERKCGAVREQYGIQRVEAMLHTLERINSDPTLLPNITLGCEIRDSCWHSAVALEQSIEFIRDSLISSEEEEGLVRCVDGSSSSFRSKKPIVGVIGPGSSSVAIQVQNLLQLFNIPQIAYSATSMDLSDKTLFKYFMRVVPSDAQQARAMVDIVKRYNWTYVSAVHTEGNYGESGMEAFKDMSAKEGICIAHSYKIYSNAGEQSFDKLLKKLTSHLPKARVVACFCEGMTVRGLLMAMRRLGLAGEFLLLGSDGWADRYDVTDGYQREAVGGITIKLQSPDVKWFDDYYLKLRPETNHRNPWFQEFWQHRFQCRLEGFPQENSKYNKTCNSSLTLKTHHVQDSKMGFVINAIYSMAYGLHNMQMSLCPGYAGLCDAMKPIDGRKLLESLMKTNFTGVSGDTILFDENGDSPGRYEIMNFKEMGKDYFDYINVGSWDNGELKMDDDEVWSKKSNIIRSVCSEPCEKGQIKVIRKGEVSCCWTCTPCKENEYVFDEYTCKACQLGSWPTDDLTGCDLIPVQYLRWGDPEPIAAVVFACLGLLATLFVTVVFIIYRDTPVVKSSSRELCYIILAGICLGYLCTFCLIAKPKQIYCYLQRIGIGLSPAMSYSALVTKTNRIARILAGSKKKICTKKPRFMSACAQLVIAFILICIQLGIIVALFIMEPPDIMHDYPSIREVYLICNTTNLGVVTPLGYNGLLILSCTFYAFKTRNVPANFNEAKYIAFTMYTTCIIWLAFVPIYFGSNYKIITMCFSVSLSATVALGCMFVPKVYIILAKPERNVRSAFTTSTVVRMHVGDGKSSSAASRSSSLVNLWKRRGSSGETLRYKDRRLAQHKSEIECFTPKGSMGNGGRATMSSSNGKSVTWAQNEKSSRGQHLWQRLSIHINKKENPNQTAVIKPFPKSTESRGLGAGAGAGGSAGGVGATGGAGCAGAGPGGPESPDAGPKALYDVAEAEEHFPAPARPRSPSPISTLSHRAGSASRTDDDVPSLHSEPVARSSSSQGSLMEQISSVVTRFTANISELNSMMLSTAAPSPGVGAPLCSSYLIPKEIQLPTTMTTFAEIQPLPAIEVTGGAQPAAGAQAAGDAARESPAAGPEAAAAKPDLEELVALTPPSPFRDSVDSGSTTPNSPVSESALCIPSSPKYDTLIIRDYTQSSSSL

The EC50 is the concentration that produces a half-maximal response. Consider `Cc1cc(-c2cn(CC(=O)N3CCN(c4ccccn4)CC3)c(-c3ccccc3)n2)ccc1F` [Example 7.01.06.], for which the concentration giving a half-maximal response (EC50) was 0.076 µM.

Take `COc1cc(N2CCN(C(=O)Cn3cc(-c4ccc(F)cc4)nc3-c3ccc(F)cc3)CC2)ncn1` [Example 7.01.27.]: the 50% effective concentration (EC50) came out at 0.238 µM.

For the molecule `O=C(Cn1cc(-c2ccc(F)cc2)nc1-c1ccccc1)N1CCN(c2ncccn2)CC1` [Example 7.03.01., 2-[4-(4-Fluoro-phenyl)-2-phenyl-imidazol-1-yl]-1-(4-pyrimidin-2-yl-piperazin-1-yl)-ethanone], the EC50 worked out at 0.272 µM.

As for `COc1cc(N2CCN(C(=O)Cn3cc(-c4ccc(F)c(C)c4)nc3-c3ccccc3)CC2)ncn1` [Example 7.01.05.], the EC50 worked out at 0.159 µM.

Consider `COc1ccnc(N2CCN(C(=O)Cn3cc(-c4cccc(C)c4)nc3-c3ccccc3)CC2)c1` [Example 7.01.33.], for which the 50% effective concentration (EC50) was determined as 0.148 µM.

For `CCc1ccc(-c2cn(CC(=O)N3CCN(c4ncccn4)CC3)c(-c3ccccc3)n2)cc1` [Example 7.03.18.], the 50% effective concentration (EC50) is 0.074 µM.

For the molecule `O=C(Cn1cc(-c2ccc(F)cc2)nc1-c1ccc(F)cc1)N1CCN(c2cccnn2)CC1` [Example 7.01.29.], the EC50 was 0.889 µM.

For the molecule `Cc1cc(-c2cn(CC(=O)N3CCN(c4ncc(F)cn4)CC3)c(-c3ccccc3)n2)ccc1F` [Example 7.01.08.], the concentration for a half-maximal effect (EC50) was 0.097 µM.

Take `Cc1cccc(-c2cn(CC(=O)N3CCN(c4cccnn4)CC3)c(-c3ccccc3)n2)c1` [Example 7.01.34.]: the half-maximal effective concentration (EC50) was found to be 0.858 µM.

Consider `Cc1cc(-c2cn(CC(=O)N3CCN(c4ncnc5[nH]cnc45)CC3)c(C3CCCCC3)n2)ccc1F` [Example 7.01.13.], for which the concentration for a half-maximal effect (EC50) was 0.857 µM.

Regarding `Cc1ccc(-c2nc(-c3ccccc3)cn2CC(=O)N2CCN(c3ccccn3)CC2)cc1` [Example 7.02.02.], the concentration giving a half-maximal response (EC50) turned out to be 1.64 µM.

On to `Cc1cc(-c2cn(CC(=O)N3CCN(c4cccnn4)CC3)c(-c3ccc(F)cc3)n2)ccc1F` [Example 7.01.22.], for which the EC50 worked out at 0.144 µM.

Consider `O=C(Cn1cc(-c2ccc(F)cc2)nc1-c1ccc(F)cc1)N1CCN(c2ncnc3[nH]cnc23)CC1` [Example 7.01.28.], for which the concentration giving a half-maximal response (EC50) was 0.262 µM.

Take `CN1CCOc2cc(-c3cn(CC(=O)N4CCN(c5ncccn5)CC4)c(-c4ccccc4)n3)ccc21` [Example 7.03.11.]: the EC50 worked out at 0.914 µM.

Consider `Cc1cc(-c2cn(CC(=O)N3CCN(c4ncccn4)CC3)c(-c3ccccc3)n2)ccc1Cl` [Example 7.03.03.], for which the EC50 was found to be 0.054 µM.

As for `COc1ccnc(N2CCN(C(=O)Cn3cc(-c4ccc(F)c(C)c4)nc3C3CCCCC3)CC2)c1` [Example 7.01.10.], the half-maximal effective concentration (EC50) was 0.737 µM.

As to `O=C(Cn1cc(-c2ccc(F)c(Cl)c2)nc1-c1ccccc1)N1CCN(c2ncccn2)CC1` [Example 7.03.05.], the concentration giving a half-maximal response (EC50) stood at 0.087 µM.

Consider `COc1cc(N2CCN(C(=O)Cn3cc(-c4cccc(C)c4)nc3-c3ccccc3)CC2)ncn1` [Example 7.01.36.], for which the EC50 is 0.196 µM.

On to `COc1ccnc(N2CCN(C(=O)Cn3cc(-c4ccc(F)cc4)nc3-c3ccc(F)cc3)CC2)c1` [Example 7.01.30.], for which the EC50 is 0.168 µM.

For the molecule `CCOc1ccc(-c2cn(CC(=O)N3CCN(c4ncccn4)CC3)c(-c3ccccc3)n2)cc1` [Example 7.03.06.], the concentration giving a half-maximal response (EC50) is 0.68 µM.

Turning to `COc1cc(N2CCN(C(=O)Cn3cc(-c4ccc(F)c(C)c4)nc3C3CCCCC3)CC2)ncn1` [Example 7.01.09.], the half-maximal effective concentration (EC50) is 1.32 µM.

On to `COc1cnc(N2CCN(C(=O)Cn3cc(-c4ccc(F)c(C)c4)nc3-c3ccc(F)cc3)CC2)nc1` [Example 7.01.25.], for which the EC50 was 0.069 µM.

`Cc1cc(-c2cn(CC(=O)N3CCN(c4ncc(F)cn4)CC3)c(-c3ccc(F)cc3)n2)ccc1F` [Example 7.01.26.]: the EC50 worked out at 0.083 µM.

Take `COc1cnc(N2CCN(C(=O)Cn3cc(-c4ccc(F)c(C)c4)nc3-c3ccccc3)CC2)nc1` [Example 7.01.07.]: the half-maximal effective concentration (EC50) was 0.053 µM.

`CCOc1cccc(-c2cn(CC(=O)N3CCN(c4ncccn4)CC3)c(-c3ccccc3)n2)c1` [Example 7.03.08.]: the EC50 was found to be 0.151 µM.

As for `Cc1cc(-c2cn(CC(=O)N3CCN(c4ncccn4)CC3)c(-c3ccccc3)n2)ccc1F` [Example 7.01.03.], the EC50 came to 0.041 µM.

As for `COc1cc(N2CCN(C(=O)Cn3cc(-c4ccc(F)cc4)nc3-c3ccccc3)CC2)ncn1` [Example 7.01.16.], the concentration giving a half-maximal response (EC50) amounted to 0.877 µM.

On to `O=C(Cn1cc(-c2ccc(F)c(F)c2)nc1-c1ccccc1)N1CCN(c2ncccn2)CC1` [Example 7.03.10.], for which the EC50 amounted to 0.159 µM.

Regarding `Cc1cc(-c2cn(CC(=O)N3CCN(c4ncccn4)CC3)c(C3CCCCC3)n2)ccc1F` [Example 7.01.12.], the EC50 is 0.458 µM.

Take `Cn1cnc2ccc(-c3cn(CC(=O)N4CCN(c5ncccn5)CC4)c(-c4ccccc4)n3)cc21` [Example 7.03.16.]: the EC50 was 1.53 µM.

For the molecule `O=C(Cn1cc(-c2ccc(F)cc2)nc1-c1ccccc1)N1CCN(c2ncnc3[nH]cnc23)CC1` [Example 7.01.15.], the half-maximal effective concentration (EC50) worked out at 0.858 µM.

In the case of `COc1ccnc(N2CCN(C(=O)Cn3cc(-c4ccc(F)cc4)nc3-c3ccccc3)CC2)c1` [Example 7.01.14.], the half-maximal effective concentration (EC50) is 0.306 µM.

On to `Cc1cc(-c2cn(CC(=O)N3CCN(c4ccccn4)CC3)c(C3CCCCC3)n2)ccc1F` [Example 7.01.11.], for which the EC50 was found to be 0.71 µM.

In the case of `Cc1cccc(-c2cn(CC(=O)N3CCN(c4ccccn4)CC3)c(-c3ccccc3)n2)c1` [Example 7.01.35.], the EC50 was 0.073 µM.

Turning to `O=C(Cn1cc(-c2ccc(F)cc2)nc1-c1ccc(F)cc1)N1CCN(c2ccccn2)CC1` [Example 7.01.31.], the EC50 stood at 0.244 µM.

For `Cc1cc(-c2cn(CC(=O)N3CCN(c4ncccn4)CC3)c(-c3ccccc3)n2)cc(C)c1F` [Example 7.03.07.], the EC50 was determined as 0.038 µM.

`Cc1cc(-c2cn(CC(=O)N3CCN(c4ncncn4)CC3)c(-c3ccc(F)cc3)n2)ccc1F` [Example 7.01.24.]: the EC50 came out at 0.147 µM.

On to `COc1ccnc(N2CCN(C(=O)Cn3cc(-c4ccc(F)c(C)c4)nc3-c3ccc(F)cc3)CC2)c1` [Example 7.01.23.], for which the concentration for a half-maximal effect (EC50) came to 0.075 µM.

Turning to `O=C(Cn1cc(-c2cccc(Cl)c2)nc1-c1ccccc1)N1CCN(c2ncccn2)CC1` [Example 7.03.13.], the EC50 worked out at 0.158 µM.

As to `O=C(Cn1cc(-c2ccccc2)nc1-c1ccccc1)N1CCN(c2ncccn2)CC1` [Example 7.01.01., 2-(2,4-Diphenyl-imidazol-1-yl)-1-(4-pyrimidin-2-yl-piperazin-1-yl)-ethanone], the EC50 worked out at 1.29 µM.

Turning to `O=C(Cn1cc(-c2ccc3c(c2)CCCO3)nc1-c1ccccc1)N1CCN(c2ncccn2)CC1` [Example 7.03.15.], the EC50 is 0.061 µM.

For `COc1ccnc(N2CCN(C(=O)Cn3cc(-c4ccc(F)c(C)c4)nc3-c3ccccc3)CC2)c1` [Example 7.01.02.], the 50% effective concentration (EC50) came to 0.084 µM.

For `Cc1ccc(-c2cn(CC(=O)N3CCN(c4ncccn4)CC3)c(-c3ccccc3)n2)cc1Cl` [Example 7.03.09.], the EC50 is 0.048 µM.

As to `Cc1cc(-c2cn(CC(=O)N3CCN(c4cccnn4)CC3)c(-c3ccccc3)n2)ccc1F` [Example 7.01.04.], the EC50 turned out to be 0.363 µM.

In the case of `O=C(Cn1cc(-c2cccc(C(F)(F)F)c2)nc1-c1ccccc1)N1CCN(c2ncccn2)CC1` [Example 7.03.14.], the EC50 amounted to 0.183 µM.

Take `Cc1cc(-c2cn(CC(=O)N3CCN(c4ncnc5[nH]cnc45)CC3)c(-c3ccc(F)cc3)n2)ccc1F` [Example 7.01.20.]: the EC50 is 0.073 µM.

`Cc1cccc(-c2cn(CC(=O)N3CCN(c4ncnc5[nH]cnc45)CC3)c(-c3ccccc3)n2)c1` [Example 7.01.32.]: the concentration giving a half-maximal response (EC50) was determined as 0.131 µM.

On to `COc1cc(N2CCN(C(=O)Cn3cc(-c4ccc(F)c(C)c4)nc3-c3ccc(F)cc3)CC2)ncn1` [Example 7.01.18.], for which the EC50 stood at 0.099 µM.

Consider `O=C(Cn1cc(-c2cccc(F)c2)nc1-c1ccccc1)N1CCN(c2ncccn2)CC1` [Example 7.03.04.], for which the concentration for a half-maximal effect (EC50) was determined as 0.395 µM.

Consider `Cc1cc(-c2cn(CC(=O)N3CCN(c4ncccn4)CC3)c(-c3ccc(F)cc3)n2)ccc1F` [Example 7.01.19.], for which the EC50 turned out to be 0.031 µM.

As for `O=C(Cn1cc(-c2ccc(F)cc2)nc1-c1ccccc1)N1CCN(c2ccccn2)CC1` [Example 7.01.17.], the EC50 came to 0.542 µM.
